Values quoted from earlier work as cited in article PMC3159817 (Journal of chemical information and modeling, 2011).

What was measured:
[1] = test system: HIV-1 reverse transcriptase Y501 mutants
[2] = test system: RNase H active site of RT with DNA:RNA substrate bound

## CC(C)(C)c1ccc(C(=O)NN=Cc2c(O)ccc3ccccc23)cc1 [BBNH, N-(4-tert-butylbenzoyl)-2-hydroxy-1-naphthaldehyde hydrazone]
[1]
  effect of Y501 mutations on inhibition: mutations of Y501 result in resistance to inhibition

## CC(C)c1ccc(O)c(=O)c(O)c1 [β-thujaplicinol]
[2]
  competition with nucleic acid substrate: appears unable to compete with the intact nucleic acid substrates
